Biological target: PI3Kalpha (Homo sapiens (Human), UniProt P42336)
Conditions: read-out: IC50 PI3K

PI3Kalpha, sequence (P42336 whole entry, looked up): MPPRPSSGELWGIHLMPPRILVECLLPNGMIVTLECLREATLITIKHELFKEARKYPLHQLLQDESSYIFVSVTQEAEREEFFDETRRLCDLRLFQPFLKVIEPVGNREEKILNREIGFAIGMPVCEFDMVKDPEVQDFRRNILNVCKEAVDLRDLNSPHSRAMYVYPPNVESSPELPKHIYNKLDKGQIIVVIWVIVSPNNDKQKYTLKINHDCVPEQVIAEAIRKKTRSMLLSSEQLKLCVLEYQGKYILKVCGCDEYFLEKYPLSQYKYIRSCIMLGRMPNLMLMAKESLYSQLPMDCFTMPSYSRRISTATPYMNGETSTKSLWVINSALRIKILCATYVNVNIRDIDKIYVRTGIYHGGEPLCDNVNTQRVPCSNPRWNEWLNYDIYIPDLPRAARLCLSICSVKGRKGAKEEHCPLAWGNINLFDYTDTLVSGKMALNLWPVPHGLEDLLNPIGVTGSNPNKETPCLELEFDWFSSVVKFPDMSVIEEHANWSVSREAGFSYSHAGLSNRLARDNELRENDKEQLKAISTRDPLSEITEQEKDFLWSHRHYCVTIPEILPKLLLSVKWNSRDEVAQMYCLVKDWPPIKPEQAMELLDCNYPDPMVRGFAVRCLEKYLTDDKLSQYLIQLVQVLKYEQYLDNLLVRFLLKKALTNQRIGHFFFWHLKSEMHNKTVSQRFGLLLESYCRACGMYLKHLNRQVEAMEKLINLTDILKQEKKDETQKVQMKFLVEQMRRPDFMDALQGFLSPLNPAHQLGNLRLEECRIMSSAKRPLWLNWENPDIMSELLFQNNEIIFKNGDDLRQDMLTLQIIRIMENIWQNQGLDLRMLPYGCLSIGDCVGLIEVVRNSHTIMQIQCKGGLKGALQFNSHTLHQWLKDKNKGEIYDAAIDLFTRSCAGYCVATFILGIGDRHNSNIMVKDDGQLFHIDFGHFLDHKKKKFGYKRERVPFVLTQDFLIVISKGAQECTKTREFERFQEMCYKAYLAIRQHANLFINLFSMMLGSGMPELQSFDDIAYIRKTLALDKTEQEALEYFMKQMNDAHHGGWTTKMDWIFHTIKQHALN

Compound | IC50 [nM]
CCc1ncnc(-c2ccc(C(=O)N3C[C@@H]4CCN[C@@H]4C3)c(F)c2)c1C#Cc1ccc(N)nc1 [Example E-332] | 655
CCc1ncnc(-c2cc(Cl)c(C(=O)N3CC4(CN(C)C4)C3)c(Cl)c2)c1C#Cc1ccc(N)nc1 [Example E-333] | 599
CCc1ncnc(-c2ccc(C(=O)N3CC4(CN(C)C4)C3)c(Cl)c2)c1C#Cc1ccc(N)nc1 [Example E-334] | 966
CCc1ncnc(-c2cc(Cl)c(C(=O)N3CCC4(CC3)CN(C)C4)c(Cl)c2)c1C#Cc1ccc(N)nc1 [Example E-335] | 2210
CCc1ncnc(-c2cc(F)c(C(=O)N3CCC4(CC3)CN(C)C4)c(F)c2)c1C#Cc1ccc(N)nc1 [Example E-336] | 773
CCc1ncnc(-c2cc(F)c(C(=O)N3CCC4(CC3)CN(C)C4)c(Cl)c2)c1C#Cc1ccc(N)nc1 [Example E-337] | 862
CCc1ncnc(-c2ccc(C(=O)N3CCC4(CC3)CN(C)C4)c(Cl)c2)c1C#Cc1ccc(N)nc1 [Example E-338] | 634
CCc1ncnc(-c2ccc(C(=O)N3CCC4(CC3)CN(C)C4)c(F)c2)c1C#Cc1ccc(N)nc1 [Example E-339] | 331
CCc1ncnc(-c2cc(F)c(C(=O)N3CCN(C)C[C@H]3C)c(F)c2)c1C#Cc1ccc(N)nc1 [Example E-340] | 364
CCc1ncnc(-c2cc(F)c(C(=O)N3CCN(C)C[C@@H]3C)c(Cl)c2)c1C#Cc1ccc(N)nc1 [Example E-341] | 282
CCc1ncnc(-c2ccc(C(=O)N3CCN(Cc4ncon4)CC3)c(Cl)c2)c1C#Cc1ccc(N)nc1 [Example E-342] | 137
CCc1ncnc(-c2ccc(C(=O)N3CCN(CCOCCO)CC3)c(F)c2)c1C#Cc1ccc(N)nc1 [Example E-345] | 109
CCc1ncnc(-c2ccc(C(=O)N3CCN(Cc4ncon4)CC3)c(F)c2)c1C#Cc1ccc(N)nc1 [Example E-346] | 167
CCc1ncnc(-c2ccc(C(=O)N3CCN(C)C[C@H]3C)c(F)c2)c1C#Cc1ccc(N)nc1 [Example E-347] | 205
CCc1ncnc(-c2ccc(C(=O)N3CCN(C)C[C@@H]3C)c(F)c2)c1C#Cc1ccc(N)nc1 [Example E-348] | 144
CCc1ncnc(-c2ccc(C(=O)N3CCN(CC(C)(C)O)CC3)c(F)c2)c1C#Cc1ccc(N)nc1 [Example E-349] | 175

— patent US8633183B2 (priority 2010, dated 2014)
